Data on one compound can be found in patent US20240116862A1, “SULFUR-CONTAINING LIPIDS” (THE UNIVERSITY OF BRITISH COLUMBIA, priority 2021, published 2024).

Usually pKa stands for the negative logarithm of the acid dissociation constant.

A short description of data set [1]: Physicochemical characteristics of LNPs comprising mRNA and sulfur lipid (dynamic light scattering, Ribogreen entrapment). The procedure:
(§1) LNP-mRNA systems were prepared as previously described (Kulkarni, J. A. et al. ACS Nano 12, 4787-4795 (2018); and Kulkarni, J. A. et al. Nanoscale 11, 9023-9031 (2019), each of which is incorporated herein by reference). Briefly, lipid components (ionizable cationic lipid, cholesterol, DSPC, and PEG-lipid) at appropriate ratios were dissolved in ethanol to a concentration of 10 mM total lipid. Luciferase encoding mRNA was dissolved in 25 mM sodium acetate pH 4 buffer to achieve an amine-to-phosphate (N/P) ratio of 6. The two solutions were mixed through a T-junction mixer at a total flow rate of 20 mL/min, and a flow rate ratio of 3:1 v/v (corresponding to 15:5 mL/min aqueous:organic phase). The resulting suspension was subsequently dialyzed against PBS pH 7.4. siRNAs were dissolved in 25 mM sodium acetate pH 4 buffer to achieve an amine-to-phosphate (N/P) ratio of 3. The two solutions were mixed through a T-junction mixer at a total flow rate of 20 mL/min, and a flow rate ratio of 3:1 v/v (corresponding to 15:5 mL/min aqueous:organic phase). The resulting suspension was subsequently dialyzed against PBS pH 7.4.
(§2) The hydrodynamic diameter and size distribution of LNP-mRNA and LNP-siRNA systems were analyzed by dynamic light scattering using a Malvern Zetasizer Nano ZS. Data presented as number-weighted average size. Lipid concentrations were measured using the Cholesterol E Total-Cholesterol assay (Wako Diagnostics, Richmond, VA). RNA concentration and entrapment were measured using the Quant-iT Ribogreen RNA assay as described elsewhere (Kulkarni, J. A. et al. ACS Nano 12, 4787-4795 (2018); and Kulkarni, J. A. et al. Nanoscale 11, 9023-9031 (2019)).
LNPs were prepared comprising ionizable cationic sulfur-containing lipid/DSPC/cholesterol/PEG-lipid at molar ratios of 50/10/38.5/1.5 and mRNA (at N/P ratio of 6) as described in the Materials and Methods. The size, PDI and entrapment percentage were determined as set out in the Materials and Methods and the results are shown in Table 2 below. The data are based on n≥3 experiments and values reported are means±SD. […]

Data set [2] in a line: Physicochemical characteristics of lipid nanoparticle (LNP) entrapping siRNA (dynamic light scattering, Ribogreen entrapment, apparent pKa). The settings on record: for Size: number-weighted average, mean of n≥3; for Entrapment: siRNA entrapment, LNP sulfur lipid/DSPC/cholesterol/PEG-lipid 50/10/38.5/1.5, N/P 3. The procedure:
as §1, §2
LNPs were prepared composed of ionizable cationic sulfur-containing lipid/DSPC/cholesterol/PEG-lipid at molar ratios of 50/10/38.5/1.5 and siRNA (at N/P ratio of 3) as described in the above Methods and Materials. The data are based on n≥3 experiments and values reported are means±SD.
Compound 13 (MF019; see Example 1) produced siRNA formulations having desirable physicochemical characteristics as shown in Table 3 below. The polydispersity index (PDI) of the resulting nanoparticles was <0.1, with an average LNP size ˜45 nm.

A further data set deals with HepG2 cells. In words: In vitro analysis of luciferase expression using LNP-mRNA systems. It is filed as cell-based. The following applies: LNP-mRNA (firefly luciferase) at 0.125, 0.25, 0.5 and 1 μg/mL, 24 hours post treatment, versus KC2 LNP. The procedure:
To assess LNP-mRNA efficacy in vitro, HepG2 cells were seeded at 8,000 cells/well in 96-well plates and cultured in DMEM supplemented with 10% FBS. LNP systems entrapping luciferase mRNA were added at various concentrations and luciferase expression was analyzed 24 hours post-treatment using the Steady-Glo Luciferase kit (Promega, Madison, WI).
The in vitro gene expression efficacy of LNP systems entrapping mRNA encoding for firefly luciferase was assessed. HepG2 cells were treated at different doses (0.125, 0.25, 0.5 and 1 μg/mL) using the above LNP-mRNA systems. Luciferase expression was analyzed 24 hours post treatment. Ionizable cationic lipid used was either KC2 (DLin-KC2-DMA) or compound 13 (MF019; see Example 1). In each case, the RLU was higher for compound 13 (MF019) than for KC2.

For another data set, the system named is Factor VII. The experiment in a line: In vivo analysis of Factor VII (FVII) silencing using LNP-siRNA systems. The following applies: 0.3 mg/kg LNP-siFVII intravenous, mice, 24 h, FIG. 6. How it is done:
FVII knockdown study were performed as previously described.^3 In brief, LNP-siRNA were administered intravenously into WT mice (Charles River Laboratories, Wilmington, MA). Animals were euthanized after 24 h, blood was collected, serum was separated from whole blood using Microtainer Serum Separator tubes (Becton Dickinson, Franklin Lakes, NJ), and the residual serum FVII levels were determined. All procedures were approved by the Animal Care Committee at the University of British Columbia and were performed in accordance with guidelines established by the Canadian Council on Animal Care.
The graph depicts residual Factor VII following intravenous administration of various doses of the LNP-siFVII (see Materials and Methods above).

Where [3] appears, read: LNP sulfur lipid/DSPC/cholesterol/PEG-lipid 50/10/38.5/1.5, siRNA, N/P 3.

`CCCCCSCSCCCCCCCCC(CCCCCCCCSCSCCCCC)OC(=O)CCCN(C)C` [compound 13, 6,8,26,28-tetrathiatritriacontan-17-yl 4-(dimethylamino)butanoate]: the PDI is 0.054 in data set [1] (LNP sulfur lipid/DSPC/cholesterol/PEG-lipid 50/10/38.5/1.5, mRNA, N/P 6) and 0.028 in data set [2] (setting [3]). Further, the Size in data set [1] (LNP sulfur lipid/DSPC/cholesterol/PEG-lipid 50/10/38.5/1.5, mRNA, N/P 6, number-weighted average, mean of n≥3) was 79 nm; in data set [2] (setting [3]), 43 nm; in data set [2] (LNP sulfur lipid/DSPC/cholesterol/PEG-lipid 50/10/38.5/1.5, siRNA, N/P 3, listed as Compound 13), approximately 45 nm. Further, the Entrapment in data set [1] (mRNA entrapment, LNP sulfur lipid/DSPC/cholesterol/PEG-lipid 50/10/38.5/1.5, N/P 6) is more than 93%; in data set [2], more than 93%; in data set [2] (listed as Compound 13) it was more than 93%. The pKa in data set [2] (setting [3]) stood at 6.41. Further, in data set [2] (LNP with siRNA, N/P 3), the “polydispersity index (PDI)” value was less than 0.1. Also, the nucleic acid entrapment result in data set [2] (formulated in a lipid nanoparticle, nucleic acid not specified) is “above 93%”. In addition, the “Luciferase expression (RLU) compared with KC2” value in the data set on HepG2 cells is given as “higher”. For the same compound, the “Factor VII knock down (residual serum FVII)” value with Factor VII is “almost complete knock down”.
